Read-outs that look alike come from different tables or passages of the source.
Key:
Salmonella Napoli = assay: Antibacterial assay, Salmonella Napoli; format: cell-based; conditions: even at the highest concentration tested (80 µM), 6 h at 37 °C
Source text: (§1) The monophasic variant of Salmonella Typhimurium, Salmonella Napoli, and Campylobacter jejuni were isolated by the Laboratory of Microbiological Food Control—Department of Food Microbiology of the Istituto Zooprofilattico Sperimentale del Mezzogiorno in Portici (Naples, Italy) in raw and processed foodstuffs of animal origin. Specifically, the monophasic variant of S. Typhimurium and S. Napoli were isolated from bivalve mollusks, while C. jejuni was isolated from poultry meat. Bacterial cells were cultured at 37 °C in the appropriate culture media (S. Typhimurium and S. Napoli in buffered peptone water (Thermo Fisher, Milan, Italy) and C. jejuni in Bolton Broth (Oxoid, Madrid, Spain)) until collection and then diluted in fresh broth to a final concentration of 1.5 × 10^3 colony forming units (CFUs)/mL. Thereafter, peptide stock solutions in DMSO were added to the bacterial suspension at the same concentrations used in the virucidal assays (40 and 80 µM) and incubated at 37 °C for 6 h. Samples containing only cell suspension and DMSO were used as controls. […]

[1] = system: Hepatitis A virus (HAV) strain HM-175; assay: Virucidal effect of peptides on HAV (residual infectivity by TCID50 titration on Frp3 cells); format: cell-based; conditions: for Viral Titre after Treatment: titration on Frp3 cells; for Viral Titre after Treatment / LRV (log reduction value): mean ± SD, triplicate
Source text: (§2) Murine norovirus strain 1 (MNV-1) was used as a surrogate for human norovirus (NoV). The virus was replicated in RAW 264.7 cells (murine macrophage cell line) cultured in Dulbecco’s modified Eagle’s medium (DMEM) supplemented with 1% glutamine, 1% non-essential amino acids, and 2% fetal bovine serum (FBS). Hepatitis A virus (HAV) strain HM-175 was replicated in Frp3 cells (non-human primate cell line derived from fetal kidney) cultured in minimum essential medium (MEM) with Earle’s salts supplemented with 1% glutamine, 2% non-essential amino acids, and 2% FBS. Both viruses were incubated in 5% CO2 at 37 °C. All cell culture media were provided by EuroClone (Milan, Italy). The viral suspensions were prepared by freeze and thaw lysis (1 cycle for MNV-1 and 3 cycles for HAV) of infected monolayers, clarified using low-speed centrifugation (800× g) to remove residual cell debris, then divided in aliquots, and stored at −80 °C until use.
(§3) Solutions 40 µM and 80 µM of each peptide of the panel (RiLK1, RiLK3, RiLK30, 1018-K6, MTP1, and AVP2) were chosen for the virucidal tests. HAV and MNV-1 were assayed at a concentration of 4.7 ± 0.2 log TCID50/mL and 4.5 ± 0.2 log TCID50/mL, respectively. The suspensions containing the peptides and viruses were incubated for 1 h at room temperature (RT,20 ± 2 °C) and 4 °C. These temperatures were chosen to simulate the use of sanitizing solutions in food production/processing environments. Residual viral infectivity was evaluated by titration (TCID50/mL) on Frp3 cells for HAV and on RAW 264.7 cells for MNV-1. Untreated HAV and MNV-1 suspensions and 40 µM and 80 µM AMP solutions, incubated at the same conditions, were used as controls. Each treatment condition was assayed in triplicate. For titration, 100 µL of serial tenfold dilutions of each sample were assayed in 24-well tissue culture plates containing 24–48 h cell monolayers and incubated for 1 h in 5% CO2 at 37 °C. After that, the wells were washed twice with 200 µL of PBS, and 500 µL of DMEM/MEM, supplemented with 2% of FBS, were was added to each well; MNV-1 and HAV incubations were carried for up to 6 days and 14 days, respectively, in 5% CO2 at 37 °C with daily visual inspection to determine the cytopathic effect. The virucidal efficacy of AMPs was estimated by comparing the titers of treated and untreated viral suspensions.
(§4) For each treatment, the average and standard deviation of the triplicate analyses were calculated. The virucidal effects of AMPs was assessed by calculating the log reduction value (LRV), i.e., the difference between the infectious titer (log-transformed) of untreated versus treated samples. The statistical significance of differences between treated and untreated samples was determined through one-way analysis of variance (ANOVA) with Bonferroni post hoc comparisons, with a significance level of p < 0.05 (GraphPad Prism v9.5.0, software San Diego, CA, USA).

[2] = system: Murine norovirus strain 1 (MNV-1); format: cell-based; conditions: for Viral Titre after Treatment: titration on RAW 264.7 cells; for Viral Titre after Treatment / LRV (log reduction value): mean ± SD, triplicate
Source text: as §2, §3, §4

[3] = pH 2; cited from earlier work
Protocol: In this context, to acquire important information on how the conformational properties of peptides might influence the structure–function relationships and their distinct membrane interaction profiles, the propensity of the new peptides, RiLK30 and AVP2, to adopt a defined secondary structure and to undergo conformational changes were examined by circular dichroism and fluorescence spectroscopy. These analyses were performed in the presence of a negatively charged SDS that is commonly used as a biomimetic membrane model to study the structural features of membranotropic molecules. In previous ...

Campylobacter jejuni = format: cell-based; conditions: peptide 40 and 80 µM, 6 h at 37 °C
Source text: as §1

[4] = HAV + peptide 40 µM, 1 h at RT (20 ± 2 °C)
[5] = HAV + peptide 80 µM, 1 h at RT (20 ± 2 °C)
[6] = MNV-1 + peptide 40 µM, 1 h at 4 °C
[7] = MNV-1 + peptide 40 µM, 1 h at RT (20 ± 2 °C)
[8] = MNV-1 + peptide 80 µM, 1 h at RT (20 ± 2 °C)

KVSGVLFGTGLWVAL-NH2 [MTP1, previously designed 15-residue antimicrobial peptide, C-terminally amidated]
bactericidal activity (growth inhibition on selective plates) (Salmonella Napoli): no detectable killing effects | Viral Titre after Treatment ([1]; HAV 4.7 ± 0.2 log TCID50/mL + peptide 80 µM, 1 h at 4 °C): 3.8 ± 0.2 logTCID50/mL | Viral Titre after Treatment ([1]; HAV + peptide 40 µM, 1 h at 4 °C): 3.6 ± 0.3 logTCID50/mL | LRV (log reduction value) ([1]; HAV + peptide 40 µM, 1 h at 4 °C, untreated minus treated titre): 1.1 ± 0.2 logTCID50/mL | LRV (log reduction value) [1, 4]: 1.5 ± 0.4 logTCID50/mL | Viral Titre after Treatment [1, 4]: 3.2 ± 0.2 logTCID50/mL | LRV (log reduction value) ([1]; HAV + peptide 80 µM, 1 h at 4 °C, untreated minus treated titre): 0.9 ± 0.4 logTCID50/mL | LRV (log reduction value) [1, 5]: 1.2 ± 0.3 logTCID50/mL | Viral Titre after Treatment [1, 5]: 3.5 ± 0.1 logTCID50/mL | decrease of HAV infectious titer ([1]; maximum reduction, corresponding to the highest LRV): up to 97.3% | virucidal activity toward MNV-1 (in words) ([2]; 40 and 80 µM, 4 °C and RT): no significant effects | Viral Titre after Treatment ([2]; MNV-1 4.5 ± 0.2 log TCID50/mL + peptide 80 µM, 1 h at 4 °C): 4.5 ± 0.1 logTCID50/mL | LRV (log reduction value) [2, 6]: 0.1 ± 0.3 logTCID50/mL | Viral Titre after Treatment [2, 6]: 4.4 ± 0.1 logTCID50/mL | LRV (log reduction value) [2, 7]: 0 ± 0.4 logTCID50/mL | Viral Titre after Treatment [2, 7]: 4.5 ± 0.2 logTCID50/mL | LRV (log reduction value) ([2]; MNV-1 + peptide 80 µM, 1 h at 4 °C): 0 ± 0.3 logTCID50/mL | LRV (log reduction value) [2, 8]: 0 ± 0.4 logTCID50/mL | Viral Titre after Treatment [2, 8]: 4.5 ± 0.2 logTCID50/mL | structural stability [3]: high structural stability | inhibitory activity against Campylobacter jejuni (in words) (Campylobacter jejuni): did not display any inhibitory activity
